Legend:
hP2X7R [1] = biological target: T1, hP2X7R (Homo sapiens, UniProt Q99572); test: BzATP-induced Ca2+ responses in HEK293 cells expressing hP2X7R (FlexStation, Fura-2); assay type: cell-based; settings: 300 μM BzATP
T1 construct: expressed in transfected cells
T1 sequence (Q99572 1-595): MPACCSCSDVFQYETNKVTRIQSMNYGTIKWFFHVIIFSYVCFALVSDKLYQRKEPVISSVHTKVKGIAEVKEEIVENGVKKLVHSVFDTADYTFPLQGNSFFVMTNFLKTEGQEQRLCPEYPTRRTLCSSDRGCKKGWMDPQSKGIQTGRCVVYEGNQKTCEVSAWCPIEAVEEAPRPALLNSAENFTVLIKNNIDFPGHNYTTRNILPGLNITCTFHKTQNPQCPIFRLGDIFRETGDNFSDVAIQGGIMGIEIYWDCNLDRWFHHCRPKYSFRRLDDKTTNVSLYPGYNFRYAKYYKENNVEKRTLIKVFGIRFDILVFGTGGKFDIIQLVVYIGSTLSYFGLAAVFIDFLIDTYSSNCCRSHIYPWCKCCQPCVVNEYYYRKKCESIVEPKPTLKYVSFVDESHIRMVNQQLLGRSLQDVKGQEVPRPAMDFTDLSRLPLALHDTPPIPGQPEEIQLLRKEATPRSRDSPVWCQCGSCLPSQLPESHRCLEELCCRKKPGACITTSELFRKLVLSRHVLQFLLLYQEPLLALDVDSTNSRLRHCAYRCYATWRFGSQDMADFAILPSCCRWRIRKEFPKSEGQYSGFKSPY
Excerpt: (§1) Human embryonic kidney (HEK) 293 cells stably expressing C-terminally EE-tagged human or rat P2X7R [42], [34], human P2X4R [15] and rat P2X3R [28] were generated in previous studies. A stable HEK293 cell line expressing C-terminally His-tagged human P2X7R was generated in this study and there was no difference in the experimental results using EE-tagged and His-tagged human P2X7R. These cells were maintained in Dulbecco’s Modified Eagle Medium (Life Technologies) supplemented with 10% foetal bovine serum and […] G418 in a tissue culture incubator at 37°C and 5% CO2 under humidified conditions. Cells were cultured in T25 flasks and split (every 3–4 days) once confluent.
FlexStation II and III (Molecular Devices) were used to measure intracellular Ca^2+ concentrations ([Ca^2+]i). Human or rat P2X7R-expressing HEK293 cells were plated in poly-D-lysine-coated 96-well plates (Molecular Devices) with 50,000 cells per well 24 h prior to use. […] Cells were excited at 340 nm and 380 nm alternatively and the emission at 510 nm recorded using a FlexStation. The ratio of fluorescence intensity (F340/F380) was used to indicate the [Ca^2+]i. The basal [Ca^2+]i was recorded for 60 s prior to the exposure to agonist and recording was continued for a further 120 s. […] The maximal changes in F340/F380 (ΔF340/380) were used for quantitative analysis. […]

rP2X7R = biological target: T2, rP2X7R (Rattus norvegicus, UniProt Q64663); test: BzATP-induced Ca2+ responses in HEK293 cells expressing rP2X7R (FlexStation, Fura-2); assay type: cell-based; settings: 300 μM BzATP
T2 construct: expressed in transfected cells
T2 sequence (Q64663 1-595): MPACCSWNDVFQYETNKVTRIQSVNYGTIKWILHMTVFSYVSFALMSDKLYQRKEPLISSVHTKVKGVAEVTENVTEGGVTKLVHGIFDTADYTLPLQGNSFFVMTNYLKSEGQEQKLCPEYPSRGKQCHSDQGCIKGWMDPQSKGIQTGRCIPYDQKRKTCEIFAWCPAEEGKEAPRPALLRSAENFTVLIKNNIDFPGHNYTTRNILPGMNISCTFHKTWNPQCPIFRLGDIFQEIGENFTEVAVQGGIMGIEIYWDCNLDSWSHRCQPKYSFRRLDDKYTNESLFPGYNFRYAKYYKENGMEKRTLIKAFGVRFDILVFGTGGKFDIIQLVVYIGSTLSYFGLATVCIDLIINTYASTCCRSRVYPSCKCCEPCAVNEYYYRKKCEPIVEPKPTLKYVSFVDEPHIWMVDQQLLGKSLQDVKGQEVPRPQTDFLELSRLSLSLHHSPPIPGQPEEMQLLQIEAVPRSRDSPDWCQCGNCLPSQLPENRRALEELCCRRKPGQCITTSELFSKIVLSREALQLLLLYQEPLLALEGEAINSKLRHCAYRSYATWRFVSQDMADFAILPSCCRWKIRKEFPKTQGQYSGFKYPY
Excerpt: as §1
FlexStation II and III (Molecular Devices) were used to measure intracellular Ca^2+ concentrations ([Ca^2+]i). Human or rat P2X7R-expressing HEK293 cells were plated in poly-D-lysine-coated 96-well plates (Molecular Devices) with 50,000 cells per well 24 h prior to use. […] Cells were excited at 340 nm and 380 nm alternatively and the emission at 510 nm recorded using a FlexStation. The ratio of fluorescence intensity (F340/F380) was used to indicate the [Ca^2+]i. The basal [Ca^2+]i was recorded for 60 s prior to the exposure to agonist and recording was continued for a further 120 s. […] The maximal changes in F340/F380 (ΔF340/380) were used for quantitative analysis.

hP2X7R [2] = biological target: T1, hP2X7R; settings: known hP2X7R antagonists; cited from earlier work

SMILES	inhibition of BzATP-induced Ca^2+ responses (hP2X7R) (hP2X7R [1]; 200 nM AZ11645373 (Fig. 1 legend)) [%]	inhibition of BzATP-induced Ca^2+ responses (rP2X7R) (rP2X7R; 200 nM AZ11645373 (Fig. 1 legend), compared with BBG)	predicted energy binding score (hP2X7R [2]) [kJ/mol]	inhibition at 10 µM (hP2X7R [1]; HEK293, compound at 10 μM, read-out: inhibition of BzATP-induced Ca^2+ responses (hP2X7R)) [%]	inhibition of BzATP-induced Ca^2+ responses (rP2X7R) (rP2X7R; compound at 10 μM)
O=C1CSC(=O)N1C(CCc1ccncc1)COc1ccc(-c2cccc([N+](=O)[O-])c2)cc1 (stereo not shown) [AZ11645373]	81.9 ± 5	far less effective	-45.2		
CCOc1ccc(Nc2ccc(/C(=C3C=C/C(=[N+](/CC)Cc4cccc(S(=O)(=O)[O-])c4)C=C/3C)c3ccc(N(CC)Cc4cccc(S(=O)(=O)O)c4)cc3C)cc2)cc1 [BBG, brilliant blue G]				71.5 ± 5	strongly inhibited
CN([C@@H](Cc1ccc(OS(=O)(=O)c2cccc3cnccc23)cc1)C(=O)N1CCN(c2ccccc2)CC1)S(=O)(=O)c1cccc2cnccc12 [KN-62]			-21.8		
C[S+]([O-])c1ccc(-c2nc(-c3ccncc3)c(-c3ccc(F)cc3)[nH]2)cc1 (stereo not shown) [SB203580]			-36.6		

Reference: publication PMC5012888, “Structure-based identification and characterisation of structurally novel human P2X7 receptor antagonists” (Biochemical Pharmacology, 2016)
